From patent US20250223268A1, “4-Methylsulfonylbenzamide Compound, Preparation Method, Herbicidal Composition And Use” (Jiangsu Flag Chemical Industry Co., Ltd., priority 2022, published 2025)

Columns and labels:
Experiment in all cases: Greenhouse herbicidal activity assay, post-emergence
Assay type in all cases: in vivo
Details in all cases: Post-emergence test, rate 150 g a.i./hm^2, grade by fresh weight inhibition rate
Cyperus iria = tested on: Cyperus iria
Method in brief: (§1)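 Graded A (≥80%) to E (<20%) by fresh weight inhibition, read 14-21 days after spraying. Plants were pot-grown in a growth chamber and received foliar application at the 3-6 leaf stage, being air-dried and returned to the chamber afterwards.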

Digitaria sanguinalis = tested on: Digitaria sanguinalis
Method in brief: as §1

Echinochloa crusgalli = tested on: Echinochloa crusgalli
Method in brief: as §1

Eclipta prostrata = tested on: Eclipta prostrata
Method in brief: as §1

Leptochloa chinensis = tested on: Leptochloa chinensis
Method in brief: as §1

Row | Compound | Control efficacy grade, Cyperus iria (Cyperus iria) | Control efficacy grade, Digitaria sanguinalis (Digitaria sanguinalis) | Control efficacy grade, Echinochloa crusgalli (Echinochloa crusgalli) | Control efficacy grade, Eclipta prostrata (Eclipta prostrata) | Control efficacy grade, Leptochloa chinensis (Leptochloa chinensis) | pest or weed control at 150 g/ha (Cyperus iria; Cyperus iria, read-out: Control efficacy grade, Cyperus iria) [%] | pest or weed control at 150 g/ha (Digitaria sanguinalis; Digitaria sanguinalis, read-out: Control efficacy grade, Digitaria sanguinalis) [%] | pest or weed control at 150 g/ha (Echinochloa crusgalli; Echinochloa crus-galli, read-out: Control efficacy grade, Echinochloa crusgalli) [%] | pest or weed control at 150 g/ha (Eclipta prostrata; Eclipta prostrata, read-out: Control efficacy grade, Eclipta prostrata) [%] | pest or weed control at 150 g/ha (Leptochloa chinensis; Dinebra chinensis, read-out: Control efficacy grade, Leptochloa chinensis) [%]
1 | CCc1nnc(NC(=O)c2ccc(S(C)(=O)=O)c([S+]([O-])C3CCCCC3)c2Cl)o1 (racemic) [Compound 3-435] | A (Fresh weight inhibition rate≥80% to 100%) | A (Fresh weight inhibition rate≥80% to 100%) | A (Fresh weight inhibition rate≥80% to 100%) | A (Fresh weight inhibition rate≥80% to 100%) | A (Fresh weight inhibition rate≥80% to 100%) |  |  |  |  | 
2 | CCc1nnc(NC(=O)c2ccc(S(C)(=O)=O)c([S+]([O-])CC(F)(F)F)c2Cl)o1 (racemic) [Compound 3-440] | A (Fresh weight inhibition rate≥80% to 100%) | A (Fresh weight inhibition rate≥80% to 100%) | A (Fresh weight inhibition rate≥80% to 100%) | A (Fresh weight inhibition rate≥80% to 100%) | A (Fresh weight inhibition rate≥80% to 100%) |  |  |  |  | 
3 | CCc1nnc(NC(=O)c2ccc(S(C)(=O)=O)c([S+]([O-])CC(F)F)c2Cl)o1 (racemic) [Compound 3-445] | A (Fresh weight inhibition rate≥80% to 100%) | A (Fresh weight inhibition rate≥80% to 100%) | A (Fresh weight inhibition rate≥80% to 100%) | A (Fresh weight inhibition rate≥80% to 100%) | A (Fresh weight inhibition rate≥80% to 100%) |  |  |  |  | 
4 | C=CC[S+]([O-])c1c(S(C)(=O)=O)ccc(C(=O)Nc2nnc(CC)o2)c1Cl (racemic) [Compound 3-455] | A (Fresh weight inhibition rate≥80% to 100%) | A (Fresh weight inhibition rate≥80% to 100%) | A (Fresh weight inhibition rate≥80% to 100%) | A (Fresh weight inhibition rate≥80% to 100%) | A (Fresh weight inhibition rate≥80% to 100%) |  |  |  |  | 
5 | CCc1nnc(NC(=O)c2ccc(S(C)(=O)=O)c([S+]([O-])CCCl)c2Cl)o1 (racemic) [Compound 3-495] | A (Fresh weight inhibition rate≥80% to 100%) | A (Fresh weight inhibition rate≥80% to 100%) | A (Fresh weight inhibition rate≥80% to 100%) | A (Fresh weight inhibition rate≥80% to 100%) | A (Fresh weight inhibition rate≥80% to 100%) |  |  |  |  | 
6 | CC(C)c1nnc(NC(=O)c2ccc(S(C)(=O)=O)c([S+]([O-])CC3CC3)c2Cl)o1 (racemic) [Compound 3-531] | A (Fresh weight inhibition rate≥80% to 100%) | A (Fresh weight inhibition rate≥80% to 100%) | A (Fresh weight inhibition rate≥80% to 100%) | A (Fresh weight inhibition rate≥80% to 100%) | A (Fresh weight inhibition rate≥80% to 100%) |  |  |  |  | 
7 | CC(C)c1nnc(NC(=O)c2ccc(S(C)(=O)=O)c([S+]([O-])C3CC3)c2Cl)o1 (racemic) [Compound 3-536] | A (Fresh weight inhibition rate≥80% to 100%) | B (Fresh weight inhibition rate≥260% to <80%) | A (Fresh weight inhibition rate≥80% to 100%) | A (Fresh weight inhibition rate≥80% to 100%) | A (Fresh weight inhibition rate≥80% to 100%) |  |  |  |  | 
8 | CC(C)c1nnc(NC(=O)c2ccc(S(C)(=O)=O)c([S+]([O-])C3CCC3)c2Cl)o1 (racemic) [Compound 3-541] | A (Fresh weight inhibition rate≥80% to 100%) | B (Fresh weight inhibition rate≥260% to <80%) | C (Fresh weight inhibition rate≥40% to <60%) | A (Fresh weight inhibition rate≥80% to 100%) | A (Fresh weight inhibition rate≥80% to 100%) |  |  |  |  | 
9 | CC(C)c1nnc(NC(=O)c2ccc(S(C)(=O)=O)c([S+]([O-])CC(F)(F)F)c2Cl)o1 (racemic) [Compound 3-556] | A (Fresh weight inhibition rate≥80% to 100%) | B (Fresh weight inhibition rate≥260% to <80%) | B (Fresh weight inhibition rate≥260% to <80%) | A (Fresh weight inhibition rate≥80% to 100%) | A (Fresh weight inhibition rate≥80% to 100%) |  |  |  |  | 
10 | CCC[S+]([O-])c1c(S(C)(=O)=O)ccc(C(=O)Nc2nnc(C3CC3)o2)c1Cl (racemic) [Compound 3-616] | A (Fresh weight inhibition rate≥80% to 100%) | A (Fresh weight inhibition rate≥80% to 100%) | A (Fresh weight inhibition rate≥80% to 100%) | A (Fresh weight inhibition rate≥80% to 100%) | A (Fresh weight inhibition rate≥80% to 100%) |  |  |  |  | 
11 | CC(C)[S+]([O-])c1c(S(C)(=O)=O)ccc(C(=O)Nc2nnc(C3CC3)o2)c1Cl (racemic) [Compound 3-621, 2-chloro-N-(5-cyclopropyl-1,3,4-oxadiazol-2-yl)-3-(isopropylsulfinyl)-4-(methylsulfonyl)benzamide] |  |  |  |  |  | 80 to 100 | 80 to 100 | 80 to 100 | 80 to 100 | 80 to 100
12 | CCCC[S+]([O-])c1c(S(C)(=O)=O)ccc(C(=O)Nc2nnc(C3CC3)o2)c1Cl (racemic) [Compound 3-626] | A (Fresh weight inhibition rate≥80% to 100%) | A (Fresh weight inhibition rate≥80% to 100%) | A (Fresh weight inhibition rate≥80% to 100%) | A (Fresh weight inhibition rate≥80% to 100%) | A (Fresh weight inhibition rate≥80% to 100%) |  |  |  |  | 
13 | CS(=O)(=O)c1ccc(C(=O)Nc2nnc(C3CC3)o2)c(Cl)c1[S+]([O-])CC1CC1 (racemic) [Compound 3-647] | A (Fresh weight inhibition rate≥80% to 100%) | A (Fresh weight inhibition rate≥80% to 100%) | A (Fresh weight inhibition rate≥80% to 100%) | A (Fresh weight inhibition rate≥80% to 100%) | A (Fresh weight inhibition rate≥80% to 100%) |  |  |  |  | 
14 | CS(=O)(=O)c1ccc(C(=O)Nc2nnc(C3CC3)o2)c(Cl)c1[S+]([O-])C1CCC1 (racemic) [Compound 3-657] | A (Fresh weight inhibition rate≥80% to 100%) | A (Fresh weight inhibition rate≥80% to 100%) | B (Fresh weight inhibition rate≥260% to <80%) | A (Fresh weight inhibition rate≥80% to 100%) | A (Fresh weight inhibition rate≥80% to 100%) |  |  |  |  | 
15 | CS(=O)(=O)c1ccc(C(=O)Nc2nnc(C3CC3)o2)c(Cl)c1[S+]([O-])C1CCCCC1 (racemic) [Compound 3-667] | A (Fresh weight inhibition rate≥80% to 100%) | A (Fresh weight inhibition rate≥80% to 100%) | C (Fresh weight inhibition rate≥40% to <60%) | A (Fresh weight inhibition rate≥80% to 100%) | A (Fresh weight inhibition rate≥80% to 100%) |  |  |  |  | 
16 | C=CC[S+]([O-])c1c(S(C)(=O)=O)ccc(C(=O)Nc2nnc(C3CC3)o2)c1Cl (racemic) [Compound 3-687] | A (Fresh weight inhibition rate≥80% to 100%) | A (Fresh weight inhibition rate≥80% to 100%) | B (Fresh weight inhibition rate≥260% to <80%) | A (Fresh weight inhibition rate≥80% to 100%) | A (Fresh weight inhibition rate≥80% to 100%) |  |  |  |  | 
17 | CS(=O)(=O)c1ccc(C(=O)Nc2nnc(C3CC3)o2)c(Cl)c1[S+]([O-])C(F)(F)C(F)(F)F (racemic) [Compound 3-692] | A (Fresh weight inhibition rate≥80% to 100%) | A (Fresh weight inhibition rate≥80% to 100%) | A (Fresh weight inhibition rate≥80% to 100%) | A (Fresh weight inhibition rate≥80% to 100%) | A (Fresh weight inhibition rate≥80% to 100%) |  |  |  |  | 
18 | CS(=O)(=O)c1ccc(C(=O)Nc2nnc(C3CC3)o2)c(Cl)c1[S+]([O-])CCCl (racemic) [Compound 3-727] | A (Fresh weight inhibition rate≥80% to 100%) | A (Fresh weight inhibition rate≥80% to 100%) | A (Fresh weight inhibition rate≥80% to 100%) | A (Fresh weight inhibition rate≥80% to 100%) | A (Fresh weight inhibition rate≥80% to 100%) |  |  |  |  | 
